Measured values taken from patent US9857356B2, “Muscle chips and methods of use thereof” (President and Fellows of Harvard College, priority 2011, dated 2018).
Bridges are numbered along the chain shown (N, C = ends). Where no end group is shown, it is not given here.

Legend:
[1] = test system: Human umbilical artery vascular smooth muscle; test: Vascular muscular thin film (vMTF) contractility assay, films on posts; assay type: cell-based
Protocol: Human umbilical artery vascular smooth muscle was seeded on thin films at 300 cells/mm^2 in complete M199 medium (M199 supplemented with 10% fetal bovine serum (FBS), penicillin, streptomycin, L-glutamine, glucose and vitamin B12). The tissue was cultured in complete M199 for 48 hours, with a single media change at 24 hours. After 48 hours, the cells were serum starved for an additional 48 hours (M199 supplemented with penicillin, streptomycin, L-glutamine, glucose and vitamin B12, but no FBS).
Muscle thin films were transferred to fresh Tyrode's solution in the testing dish (FIG. 1), which is maintained at 37° C. by a peltier heating system. Films were adhered to Teflon coated posts (FIG. 3) by moving them into close contact using tweezers. The films were imaged using a stereomicroscope outfitted with fluorescent imaging capability. Both brightfield and fluorescent images were captured every thirty seconds. In the experiment shown in FIG. […]
Quantification and analysis of thin film motion was performed using ImageJ (NIH) and MATLAB software. Thresholded fluorescent images (FIG. 4B) were fit to circles whose radii of curvature could be measured (FIG. 4C). Using elasticity theory, the contraction stress necessary to induce the measured changes in curvature were calculated (FIG. 4D). […]

[2] = test system: vascular smooth muscle cells; test: Horizontal vascular smooth muscle thin film (hMTF) contractility assay; assay type: cell-based
Protocol: FIG. 12 contrasts the use of fluorescent microscopy and the use of brightfield stereo microscopy of vascular smooth muscle (VSM) horizontal MTFs during an assay of the invention as described in Example 5. The top row depicts fluorescent microscopy photographs of VSM horizontal MTFs comprising fluorescent beads embedded in the PDMS film. […] (A) Photographs taken 5 minutes after the start of the experiment, the films are slightly bent up from the glass due to the initial contraction of VSM. […] Polydimethylsiloxane (PDMS) thin film substrates were fabricated via a multi-step spin coating process. Poly(N-isopropylacrylamide) ([…]) (Polysciences, Inc.) was dissolved at 10 wt % in 99.4% 1-butanol (w/v) and was then deposited as a thin layer onto the open glass islands, then the top protective film layer was peeled off. Sylgard 184 (Dow Corning) polydimethylsiloxane (PDMS) elastomer was mixed at a 10:1 base to curing agent ratio doped with 0.1% by volume […] Fluorospheres (Invitrogen), and spun coated on top of the […] coated glass cover slip which was then cured. The next day, the bottom protective film was peeled off. A mask, printed on transparencies was used to cut the glass into desired shapes. MTFs were released from the cover slip once the cells have formed the appropriate 2D microstructure. The MTFs were either cut out by hand, cut out using a robotic system, pre-cut prior to cell incubation. In one specific example of, e.g., horizontal MTF production, the middle section was cut out, so that only six rectangles remained in the area that had […]). Once the Tyrode's solution cools below 35° C., the […] layer transitions from a hydrophobic state to a hydrophilic state and begins to dissolve. As the […] dissolved the middle section cutout was peeled off the substrate with a pair of tweezers. Once the […] dissolves completely, the contraction of the myocytes pulls the MTF (the remaining rectangles) free from the rigid substrate. In the case of the horizontal MTF, rectangles remain with one end partially fixed to the substrate. Actuation and observation of multiple MTFs was carried out in a physiologic solution (e.g., normal Tyrodes solution). The horizontal […]) fabricated with vascular smooth muscle cells in the presence of fluorescent beads were treated with the endothelium-produced vasoconstrictor endothelin-1 (ET-1) followed by the rho-kinase inhibitor HA-1077. […] Quantification and analysis of thin film motion was performed using ImageJ (NIH) and MATLAB software. From the thresholded fluorescent images the length of the projection of the film on the horizontal plane was tracked throughout the contraction and the radius of curvature calculated. Using elasticity theory, the contraction stress necessary to induce the measured changes in curvature were calculated.

Molecule	stress after treatment (residual stress) ([1]; vMTFs, 100 mM HA-1077 following ET-1) [kPa]	effect on VSM horizontal MTFs (FIG. 12C) ([2]; 30 minutes after addition of the rho-kinase inhibitor)	change in radius of curvature ([2]; hMTFs, 100 mM HA-1077 following ET-1)	increase in cell generated stress ([1]; vMTFs stimulated with 50 nM ET-1 at time 0) [kPa]	effect on VSM horizontal MTFs (FIG. 12B) ([2]; 20 minutes after addition of the vasoconstrictor)	change in radius of curvature ([2]; hMTFs stimulated with 50 nM ET-1 at time 0)
O=S(=O)(c1cccc2cnccc12)N1CCCNCC1 [HA-1077, fasudil]	3.1±0.8	causes the VSM to completely relax	rapid increase in radius of curvature			
endothelin-1 (CSCSSLMDKECVYFCHLDIIW; disulfide 1-15, 3-11; ends not checked; UniProt P05305 53-73, looked up) [ET-1, endothelium-produced vasoconstrictor]				5.06±0.75	causes the VSM to contract	decrease in their radii of curvature
